Source: ChEMBL document CHEMBL1201862, “PubChem BioAssay data set” (2004)
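Dose response: 5 concentrations. Exposure: 48 h. Format: 96-well plates. Endpoint: linear interpolation; highest concentration if not reached. The concentration for 50% growth inhibition is given as GI50.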 The source made the active and inactive calls. Cut-off read from the data, not from the text of the source: active = GI50 up to about 1.1 µM and inactive = higher.

Tests used:
Assay in all cases: NCI-60 cell line screen, 48 h
UO-31 = system: UO-31
OVCAR-3 = system: OVCAR-3
CAKI-1 = system: CAKI-1
SNB-75 = system: SNB-75
NCI-H23 = system: NCI-H23
LXFL 529 = system: LXFL 529
HOP-92 = system: HOP-92
786-0 = system: 786-0
MOLT-4 = system: MOLT-4
SW-620 = system: SW-620
SNB-19 = system: SNB-19
IGROV-1 = system: IGROV-1
DMS-273 = system: DMS-273
OVCAR-8 = system: OVCAR-8
EKVX = system: EKVX
Malme-3M = system: Malme-3M
HOP-62 = system: HOP-62
CCRF-CEM = system: CCRF-CEM
DLD-1 = system: DLD-1
UACC-62 = system: UACC-62
KM12 = system: KM12
SF-268 = system: SF-268
U-251 = system: U-251
OVCAR-5 = system: OVCAR-5
UACC-257 = system: UACC-257
RPMI-8226 = system: RPMI-8226
K562 = system: K562
HT-29 = system: HT-29
A549 = system: A549
HOP-18 = system: HOP-18
SN12C = system: SN12C
SNB-78 = system: SNB-78
SR = system: SR
LOX IMVI = system: LOX IMVI
DMS-114 = system: DMS-114
COLO 205 = system: COLO 205
TK-10 = system: TK-10
NCI-H460 = system: NCI-H460
SF-539 = system: SF-539
RXF 393 = system: RXF 393
M14 = system: M14
XF498 = system: XF498
HCT-116 = system: HCT-116
OVCAR-4 = system: OVCAR-4
NCI-H522 = system: NCI-H522
SF-295 = system: SF-295
SK-OV-3 = system: SK-OV-3
ACHN = system: ACHN
HL-60 = system: HL-60
SK-MEL-5 = system: SK-MEL-5
KM-20L2 = system: KM-20L2
NCI-H226 = system: NCI-H226
SK-MEL-28 = system: SK-MEL-28
HCT-15 = system: HCT-15
HCC 2998 = system: HCC 2998
SK-MEL-2 = system: SK-MEL-2

With `COc1ccc(NC(=O)C(=O)C2CNC(=O)NC2=O)c(OC)c1` (stereo unspecified) the GI50 (UO-31) was > 100 µM (inactive), the GI50 (OVCAR-3) was > 100 µM (inactive) and the GI50 (CAKI-1) was > 100 µM (inactive). The GI50 (SNB-75) was > 100 µM (inactive), the GI50 (NCI-H23) was > 100 µM (inactive) and the GI50 (LXFL 529) was > 100 µM (inactive). For the same molecule, the GI50 (HOP-92) was > 100 µM (inactive), the GI50 (786-0) was > 100 µM (inactive) and the GI50 (MOLT-4) was > 100 µM (inactive). For the same molecule, the GI50 (SW-620) was > 100 µM (inactive), the GI50 (SNB-19) was > 100 µM (inactive) and the GI50 (IGROV-1) was > 100 µM (inactive). The GI50 (DMS-273) was > 100 µM (inactive), the GI50 (OVCAR-8) was > 100 µM (inactive) and the GI50 (EKVX) was > 100 µM (inactive). For the same molecule, the GI50 (Malme-3M) was > 100 µM (inactive), the GI50 (HOP-62) was > 100 µM (inactive) and the GI50 (CCRF-CEM) was > 100 µM (inactive). The GI50 (DLD-1) was > 100 µM (inactive), the GI50 (UACC-62) was > 100 µM (inactive) and the GI50 (KM12) was > 100 µM (inactive). For the same molecule, the GI50 (SF-268) was > 100 µM (inactive), the GI50 (U-251) was > 100 µM (inactive) and the GI50 (OVCAR-5) was > 100 µM (inactive). For the same molecule, the GI50 (UACC-257) was > 100 µM (inactive), the GI50 (RPMI-8226) was > 100 µM (inactive) and the GI50 (K562) was > 100 µM (inactive). The GI50 (HT-29) was > 100 µM (inactive), the GI50 (A549) was > 100 µM (inactive) and the GI50 (HOP-18) was > 100 µM (inactive). For the same molecule, the GI50 (SN12C) was > 100 µM (inactive), the GI50 (SNB-78) was > 100 µM (inactive) and the GI50 (SR) was > 100 µM (inactive). For the same molecule, the GI50 (LOX IMVI) was > 100 µM (inactive), the GI50 (DMS-114) was > 100 µM (inactive) and the GI50 (COLO 205) was > 100 µM (inactive). For the same molecule, the GI50 (TK-10) was > 100 µM (inactive), the GI50 (NCI-H460) was > 100 µM (inactive) and the GI50 (SF-539) was > 100 µM (inactive). For the same molecule, the GI50 (RXF 393) was > 100 µM (inactive), the GI50 (M14) was > 100 µM (inactive) and the GI50 (XF498) was > 100 µM (inactive). For the same molecule, the GI50 (HCT-116) was > 100 µM (inactive), the GI50 (OVCAR-4) was > 100 µM (inactive) and the GI50 (NCI-H522) was > 100 µM (inactive). For the same molecule, the GI50 (SF-295) was > 100 µM (inactive), the GI50 (SK-OV-3) was > 100 µM (inactive) and the GI50 (ACHN) was > 100 µM (inactive). The GI50 (HL-60) was > 100 µM (inactive), the GI50 (SK-MEL-5) was > 100 µM (inactive) and the GI50 (KM-20L2) was > 100 µM (inactive). The GI50 (NCI-H226) was > 100 µM (inactive), the GI50 (SK-MEL-28) was > 100 µM (inactive) and the GI50 (HCT-15) was greater than 100 µM. The GI50 (HCC 2998) was > 100 µM (inactive) and the GI50 (SK-MEL-2) was > 100 µM (inactive).
